Source: patent US11274083B2, “Substituted thiophenyl uracils, salts thereof and the use thereof as herbicidal agents” (Syngenta Crop Protection AG, priority 2017, dated 2022)

Key:
Format in all cases: in vivo
Echinochloa crus-galli [1] = test: Herbicidal action post-emergence, greenhouse pot test; details: application rate 80 g/ha
Outline: (§1)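 Weeds were sown in sandy loam and grown in a greenhouse for 2 to 3 weeks, then sprayed at the one-leaf stage with WP or EC formulations plus 0.5% additive at 600 L/ha water, at 80 g/ha or lower. Efficacy was scored visually about 3 weeks later against untreated controls.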

Lolium rigidum [2] = test: as above; details: application rate 80 g/ha
Outline: as §1

Polygonum convolvulus [3] = test: as above
Outline: as §1

Stellaria media [4] = test: as above; details: application rate 80 g/ha
Outline: as §1

Setaria viridis [5] = test: as above
Outline: as §1

Alopecurus myosuroides [6] = test: as above; details: application rate 80 g/ha, scored visually after about 3 weeks vs untreated controls
Outline: as §1

Pharbitis purpurea [7] = test: as above
Outline: as §1

Viola tricolor [8] = test: as above
Outline: as §1

Veronica persica [9] = test: as above; details: application rate 80 g/ha
Outline: as §1

Abutilon theophrasti [10] = test: as above
Outline: as §1

Amaranthus retroflexus [11] = test: as above
Outline: as §1

Matricaria inodora [12] = test: as above
Outline: as §1

Echinochloa crus-galli [13] = test: Herbicidal action pre-emergence, greenhouse pot test; details: application rate 320 g/ha
Text: (§2) Seeds of mono- and dicotyledonous weeds and crop plants were laid out in plastic or organic plant pots and covered with soil. The compounds of the invention formulated in the form of wettable powders (WP) or as emulsion concentrates (EC) were then applied to the surface of the covering soil as an aqueous suspension or emulsion with addition of 0.5% additive at a water application rate equivalent to 600 L/ha. After the treatment, the pots were placed in a greenhouse and kept under good growth conditions for the test plants. After about 3 weeks, the efficacy of the preparations was scored visually as a percentage by comparison with untreated controls. For example, 100% efficacy=plants have died. 0% efficacy=like control plants. Tables B1 to B17 below show the efficacies of selected compounds of the general formula (I) according to tables I.1 to I.50 on various harmful plants and an application rate corresponding to 320 g/ha or lower that were obtained by the aforementioned trial method.

Lolium rigidum [14] = test: as above; details: application rate 320 g/ha
Text: as §2

Cyperus esculentus = test: as above; details: application rate 320 g/ha
Text: as §2

Polygonum convolvulus [15] = test: as above
Text: as §2

Stellaria media [16] = test: as above
Text: as §2

Setaria viridis [17] = test: as above
Text: as §2

Alopecurus myosuroides [18] = test: as above; details: application rate 320 g/ha
Text: as §2

Hordeum murinum = test: as above; details: application rate 320 g/ha
Text: as §2

Pharbitis purpurea [19] = test: as above; details: application rate 320 g/ha
Text: as §2

Viola tricolor [20] = test: as above
Text: as §2

Veronica persica [21] = test: as above
Text: as §2

Abutilon theophrasti [22] = test: as above
Text: as §2

Amaranthus retroflexus [23] = test: as above
Text: as §2

Matricaria inodora [24] = test: as above
Text: as §2, with “according to tables I.1 to I.50 on various harmful plants and an application rate corresponding to 320 g/ha or lower that were obtained by the” left out

Oryza sativa = test: Crop compatibility post-emergence, greenhouse pot test
Outline: (§3)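 Pot-grown plants in sandy loam, greenhouse, sprayed post-emergence at the one-leaf stage (2–3 weeks after sowing) with WP or EC formulations as aqueous spray plus 0.5% additive at 600 L/ha. Damage scored visually after about 3 weeks versus untreated controls, in % (0% = like control, 100% = dead).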

Triticum aestivum = test: as above; details: application rate 20 g/ha
Outline: as §3

Avena fatua = test: Herbicidal action pre-emergence, greenhouse pot test; details: application rate 320 g/ha
Text: as §2

Zea mays = test: Crop compatibility post-emergence, greenhouse pot test
Outline: as §3

SMILES | Triticum aestivum (Efficacy in %) (Triticum aestivum) | Echinochloa crus-galli (Efficacy in %) (Echinochloa crus-galli [1]) | Polygonum convolvulus (Efficacy in %) (Polygonum convolvulus [3]; application rate 80 g/ha) | Stellaria media (Efficacy in %) (Stellaria media [4]) | Setaria viridis (Efficacy in %) (Setaria viridis [5]; application rate 80 g/ha) | Alopecurus myosuroides (Efficacy in %) (Alopecurus myosuroides [6]) | Pharbitis purpurea (Efficacy in %) (Pharbitis purpurea [7]; application rate 80 g/ha) | Veronica persica (Efficacy in %) (Veronica persica [9]) | Abutilon theophrasti (Efficacy in %) (Abutilon theophrasti [10]; application rate 80 g/ha) | Amaranthus retroflexus (Efficacy in %) (Amaranthus retroflexus [11]; application rate 80 g/ha) | Matricaria inodora (Efficacy in %) (Matricaria inodora [12]; application rate 80 g/ha) | Echinochloa crus-galli (Efficacy in %) (Echinochloa crus-galli [13]) | Lolium rigidum (Efficacy in %) (Lolium rigidum [14]) | Cyperus esculentus (Efficacy in %) (Cyperus esculentus) | Stellaria media (Efficacy in %) (Stellaria media [16]; application rate 80 g/ha) | Alopecurus myosuroides (Efficacy in %) (Alopecurus myosuroides [18]) | Hordeum murinum (Efficacy in %) (Hordeum murinum) | Pharbitis purpurea (Efficacy in %) (Pharbitis purpurea [19]) | Veronica persica (Efficacy in %) (Veronica persica [21]; application rate 320 g/ha) | Amaranthus retroflexus (Efficacy in %) (Amaranthus retroflexus [23]; application rate 80 g/ha) | further results
COC(=O)CC(C)OC(=O)C(C)Sc1cc(-n2c(=O)cc(C(F)(F)F)n(C)c2=O)c(F)cc1Cl (stereo not drawn) [I.1-22] | 20% | 100% | 100% | 100% | 100% | 80% | 100% | 100% | 100% | 100% | 100% | 100% | 100% | 90% | 100% | 80% | 100% | 100% | 100% | 100% | Lolium rigidum (Efficacy in %) (Lolium rigidum [2]): 90%; Viola tricolor (Efficacy in %) (Viola tricolor [8]; application rate 80 g/ha): 100%; Polygonum convolvulus (Efficacy in %) (Polygonum convolvulus [15]; application rate 80 g/ha): 100%; Setaria viridis (Efficacy in %) (Setaria viridis [17]; application rate 80 g/ha): 100%; Viola tricolor (Efficacy in %) (Viola tricolor [20]; application rate 80 g/ha): 100%; Abutilon theophrasti (Efficacy in %) (Abutilon theophrasti [22]; application rate 80 g/ha): 100%; Matricaria inodora (Efficacy in %) (Matricaria inodora [24]; application rate 80 g/ha): 100%; Oryza sativa (Efficacy in %) (Oryza sativa; application rate 5 g/ha): 0%
COC(=O)C(C)OC(=O)C(C)Sc1cc(-n2c(=O)cc(C(F)(F)F)n(C)c2=O)c(F)cc1Cl (stereo not drawn) [I.1-72] | 20% | 100% | 100% | 100% |  |  |  | 100% |  |  | 100% | 100% |  | 100% | 100% |  | 80% | 100% |  |  | Setaria viridis (Efficacy in %) (Setaria viridis [5]; application rate 20 g/ha): 100%; Pharbitis purpurea (Efficacy in %) (Pharbitis purpurea [7]; application rate 20 g/ha): 100%; Viola tricolor (Efficacy in %) (Viola tricolor [8]; application rate 80 g/ha): 100%; Abutilon theophrasti (Efficacy in %) (Abutilon theophrasti [10]; application rate 20 g/ha): 100%; Amaranthus retroflexus (Efficacy in %) (Amaranthus retroflexus [11]; application rate 20 g/ha): 100%; Polygonum convolvulus (Efficacy in %) (Polygonum convolvulus [15]; application rate 80 g/ha): 100%; Setaria viridis (Efficacy in %) (Setaria viridis [17]; application rate 80 g/ha): 100%; Viola tricolor (Efficacy in %) (Viola tricolor [20]; application rate 80 g/ha): 100%; Veronica persica (Efficacy in %) (Veronica persica [21]; application rate 80 g/ha): 100%; Abutilon theophrasti (Efficacy in %) (Abutilon theophrasti [22]; application rate 80 g/ha): 100%; Avena fatua (Efficacy in %) (Avena fatua): 90%; Amaranthus retroflexus (Efficacy in %) (Amaranthus retroflexus [23]; application rate 20 g/ha): 100%; Matricaria inodora (Efficacy in %) (Matricaria inodora [24]; application rate 80 g/ha): 100%; Oryza sativa (Efficacy in %) (Oryza sativa; application rate 20 g/ha): 10%

Continued, in another order:

Triticum aestivum (Efficacy in %) (Triticum aestivum) | SMILES | Echinochloa crus-galli (Efficacy in %) (Echinochloa crus-galli [1]) | Polygonum convolvulus (Efficacy in %) (Polygonum convolvulus [3]; application rate 80 g/ha) | Stellaria media (Efficacy in %) (Stellaria media [4]) | Setaria viridis (Efficacy in %) (Setaria viridis [5]; application rate 80 g/ha) | Alopecurus myosuroides (Efficacy in %) (Alopecurus myosuroides [6]) | Pharbitis purpurea (Efficacy in %) (Pharbitis purpurea [7]; application rate 80 g/ha) | Veronica persica (Efficacy in %) (Veronica persica [9]) | Abutilon theophrasti (Efficacy in %) (Abutilon theophrasti [10]; application rate 80 g/ha) | Amaranthus retroflexus (Efficacy in %) (Amaranthus retroflexus [11]; application rate 80 g/ha) | Matricaria inodora (Efficacy in %) (Matricaria inodora [12]; application rate 80 g/ha) | Echinochloa crus-galli (Efficacy in %) (Echinochloa crus-galli [13]) | Lolium rigidum (Efficacy in %) (Lolium rigidum [14]) | Cyperus esculentus (Efficacy in %) (Cyperus esculentus) | Stellaria media (Efficacy in %) (Stellaria media [16]; application rate 80 g/ha) | Alopecurus myosuroides (Efficacy in %) (Alopecurus myosuroides [18]) | Hordeum murinum (Efficacy in %) (Hordeum murinum) | Pharbitis purpurea (Efficacy in %) (Pharbitis purpurea [19]) | Veronica persica (Efficacy in %) (Veronica persica [21]; application rate 320 g/ha) | Amaranthus retroflexus (Efficacy in %) (Amaranthus retroflexus [23]; application rate 80 g/ha) | further results
10% | COC(=O)C(C)(C)OC(=O)C(C)Sc1cc(-n2c(=O)cc(C(F)(F)F)n(C)c2=O)c(F)cc1Cl (stereo not drawn) [I.1-132] | 100% | 100% | 100% | 100% | 80% | 100% | 100% | 100% | 100% | 90% | 100% | 100% |  |  | 100% | 80% | 100% | 100% | 100% | Polygonum convolvulus (Efficacy in %) (Polygonum convolvulus [15]; application rate 320 g/ha): 100%; Stellaria media (Efficacy in %) (Stellaria media [16]; application rate 320 g/ha): 100%; Setaria viridis (Efficacy in %) (Setaria viridis [17]; application rate 320 g/ha): 100%; Viola tricolor (Efficacy in %) (Viola tricolor [20]; application rate 320 g/ha): 100%; Abutilon theophrasti (Efficacy in %) (Abutilon theophrasti [22]; application rate 320 g/ha): 100%; Avena fatua (Efficacy in %) (Avena fatua): 90%; Matricaria inodora (Efficacy in %) (Matricaria inodora [24]; application rate 320 g/ha): 100%; Oryza sativa (Efficacy in %) (Oryza sativa; application rate 80 g/ha): 20%; Zea mays (Efficacy in %) (Zea mays; application rate 20 g/ha): 20%
20% | CC(Sc1cc(-n2c(=O)cc(C(F)(F)F)n(C)c2=O)c(F)cc1Cl)C(=O)OC1CCOC1=O (stereo not drawn) [I.1-141] | 100% | 100% | 100% |  | 90% | 100% | 100% | 100% | 100% | 100% | 100% | 100% |  |  | 80% | 100% | 100% | 100% | 100% | Setaria viridis (Efficacy in %) (Setaria viridis [5]; application rate 20 g/ha): 100%; Polygonum convolvulus (Efficacy in %) (Polygonum convolvulus [15]; application rate 320 g/ha): 100%; Stellaria media (Efficacy in %) (Stellaria media [16]; application rate 320 g/ha): 100%; Setaria viridis (Efficacy in %) (Setaria viridis [17]; application rate 320 g/ha): 100%; Viola tricolor (Efficacy in %) (Viola tricolor [20]; application rate 320 g/ha): 100%; Abutilon theophrasti (Efficacy in %) (Abutilon theophrasti [22]; application rate 320 g/ha): 100%; Avena fatua (Efficacy in %) (Avena fatua): 80%; Matricaria inodora (Efficacy in %) (Matricaria inodora [24]; application rate 320 g/ha): 100%; Oryza sativa (Efficacy in %) (Oryza sativa; application rate 20 g/ha): 0%; Zea mays (Efficacy in %) (Zea mays; application rate 5 g/ha): 10%
20% | CCOC(=O)CC(C)OC(=O)CSc1cc(-n2c(=O)cc(C(F)(F)F)n(C)c2=O)c(F)cc1Cl (stereo not drawn) [I.8-23] | 100% |  | 100% | 100% |  |  | 100% | 100% | 100% |  | 100% | 90% | 90% | 100% |  | 80% | 100% | 100% | 100% | Polygonum convolvulus (Efficacy in %) (Polygonum convolvulus [3]; application rate 20 g/ha): 100%; Pharbitis purpurea (Efficacy in %) (Pharbitis purpurea [7]; application rate 20 g/ha): 100%; Viola tricolor (Efficacy in %) (Viola tricolor [8]; application rate 20 g/ha): 100%; Matricaria inodora (Efficacy in %) (Matricaria inodora [12]; application rate 20 g/ha): 100%; Polygonum convolvulus (Efficacy in %) (Polygonum convolvulus [15]; application rate 320 g/ha): 100%; Setaria viridis (Efficacy in %) (Setaria viridis [17]; application rate 320 g/ha): 100%; Viola tricolor (Efficacy in %) (Viola tricolor [20]; application rate 320 g/ha): 100%; Abutilon theophrasti (Efficacy in %) (Abutilon theophrasti [22]; application rate 320 g/ha): 100%; Matricaria inodora (Efficacy in %) (Matricaria inodora [24]; application rate 80 g/ha): 100%; Oryza sativa (Efficacy in %) (Oryza sativa; application rate 5 g/ha): 20%
